Measured values taken from US20250289789A1, “REVERSIBLE LYSINE COVALENT MODIFIERS OF CDK2 AND USES THEREOF” (Terremoto Biosciences, Inc., priority 2023, published 2025).
Where two headings read alike, the source gives them in different places.

How the values were obtained:
Format in all cases: cell-based
[1] = biological target: T1, CDK2-NanoLuc fusion with CCNE1 in 293T or 293 cells (Homo sapiens, UniProt P24941); test: NanoBRET Target Engagement (TE) Intracellular Kinase Assay, CDK2/CCNE1; conditions: NanoBRET TE intracellular kinase assay, 2-hour incubation, read-out: NanoBRET-CDK2/E1 IC50
T1 construct: host or cells: 293T (ATCC CRL-3216) or 293 (ATCC CRL-1573)
Protocol: (§1) Inhibitory effects of compounds were measured in NanoBRET TE Intracellular Kinase Assay. […] Cells were co-transfected with 1 μg/mL of CDK-NanoLuc Fusion Vector (Promega; NV2701 for CDK1, NV2781 for CDK2, NV2811 for CDK4, NV2841 for CDK6) and 1 μg/mL of the corresponding Cyclin Expression Vector (Promega; NV2601 for CCNB1, NV2641 for CCNE1, NV2621 for CCND1, NV2631 for CCND3) using FuGENE HD Transfection Reagent (Promega; E2311). […] 20 uL/well of 3× Intracellular TE Nano-Glo Substrate/Inhibitor (Promega; N2162) were added to 384-well plates and incubated for 3 minutes at room temperature. NanoBRET signals (donor emission wavelength at 450 nm, acceptor emission wavelength at 610 nm) were measured using Envision plate reader (PerkinElmer). NanoBRET ratio was calculated by: BRET Ratio=raw signal for acceptor/raw signal for donor. Dose response curve normalized to DMSO control was plotted using four-parameter logistic model for IC50 calculation.

[2] = biological target: T2, CDK4-NanoLuc fusion with CCND1 in 293T or 293 cells (Homo sapiens, UniProt P11802); test: NanoBRET Target Engagement (TE) Intracellular Kinase Assay, CDK4/CCND1; conditions: NanoBRET TE intracellular kinase assay, 2-hour incubation, read-out: NanoBRET-CDK4/D1 IC50
T2 construct: host or cells: 293T (ATCC CRL-3216) or 293 (ATCC CRL-1573)
Protocol: as §1

[3] = test system: Phospho-Rb Ser807/811 in OVCAR3 cells; test: OVCAR3 Phospho-Rb Ser807/811 HTRF assay; conditions: OVCAR3 cells, Phospho-Rb Ser807/811 HTRF, 1 hour incubation, read-out: pRb-OVCAR3 IC50
Protocol: Cells were trypsinized and resuspended in 1 mM hydroxyurea (Sigma; H8627), 90% RPMI and 10% fetal bovine serum. […] Dose response curve normalized to DMSO control was plotted using four-parameter logistic model for IC50 calculation.

T2 sequence (P11802 whole entry, the tested form may be a part): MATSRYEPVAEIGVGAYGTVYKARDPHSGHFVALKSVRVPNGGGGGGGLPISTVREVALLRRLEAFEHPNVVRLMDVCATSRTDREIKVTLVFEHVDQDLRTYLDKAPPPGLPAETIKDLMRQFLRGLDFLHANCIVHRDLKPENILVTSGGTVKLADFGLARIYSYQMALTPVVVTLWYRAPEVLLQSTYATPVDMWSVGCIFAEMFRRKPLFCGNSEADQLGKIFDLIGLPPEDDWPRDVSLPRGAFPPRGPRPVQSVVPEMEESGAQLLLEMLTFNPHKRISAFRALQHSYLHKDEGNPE
T2 sequence (P24385 whole entry partner, the tested form may be a part): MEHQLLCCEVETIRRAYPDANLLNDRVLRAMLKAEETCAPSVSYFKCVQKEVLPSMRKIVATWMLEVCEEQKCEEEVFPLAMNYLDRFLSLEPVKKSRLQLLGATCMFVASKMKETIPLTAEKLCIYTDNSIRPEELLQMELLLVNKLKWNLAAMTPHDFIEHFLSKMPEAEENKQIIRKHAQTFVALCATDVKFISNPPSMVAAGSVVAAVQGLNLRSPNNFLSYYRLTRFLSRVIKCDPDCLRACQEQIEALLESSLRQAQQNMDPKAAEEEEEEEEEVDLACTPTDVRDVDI

| SMILES | IC50 [1] | IC50 [2] | IC50 ([3]; Homo sapiens, OVCAR-3, 1 h) | IC50 [3] |
| --- | --- | --- | --- | --- |
| COc1cc(O)c(C=O)c(O[C@H](C)C(=O)Nc2cc([C@H]3C[C@@H](OC(=O)N4C5COCC4C5)C3)[nH]n2)c1 [Compound 193] | 11.6 nM | > 10000 nM | 84.7 nM | – |
| COc1cc(O)c(C=O)c2c1CC(C(=O)Nc1cc([C@H]3CC[C@@H](OC(=O)N4CCCN4C)C3)[nH]n1)C2 (single isomer, unassigned) [Compound 262, (1R,3S)-3-(3-((*)-4-formyl-5-hydroxy-7-methoxy-2,3-dihydro-1H-indene-2-carboxamido)-1H-pyrazol-5-yl)cyclopentyl 2-methylpyrazolidine-1-carboxylate] | 4.42 nM | 5080 nM | – | 51.8 nM |
| COc1cc(O)c(C=O)c(OCC(=O)Nc2cc([C@H]3CC[C@@H](OC(=O)NCCOC(F)F)C3)n[nH]2)c1 [Compound 116] | 4.5 nM | 4360 nM | 32.3 nM | – |
| COc1cc(O)c(C=O)c(OCC(=O)Nc2cc([C@H]3CC[C@@H](OC(=O)N4CCCN4C)C3)[nH]n2)c1 [Compound 278, (1R,3S)-3-(3-(2-(2-formyl-3-hydroxy-5-methoxyphenoxy)acetamido)-1H-pyrazol-5-yl)cyclopentyl 2-methylpyrazolidine-1-carboxylate] | 4.1 nM | > 10000 nM | 95.9 nM | – |
| COc1cc(O)c(C=O)c(OCC(=O)Nc2cc([C@H]3CC[C@@H](OC(=O)NCC4CCC4)C3)[nH]n2)c1 [Compound 178] | 2.08 nM | 5600 nM | 54.1 nM | – |
| COc1cc(O)c(C=O)c(OCC(=O)Nc2cc([C@H]3CC[C@@H](OC(=O)N4CC[C@H]4C#N)C3)[nH]n2)c1 (stereo in doubt) [Compound 126] | 9.62 nM | 7310 nM | 75.7 nM | – |
| COc1cc(O)c(C=O)c(OCC(=O)Nc2cc([C@H]3CC[C@@H](OC(=O)N[C@@H](C)CF)C3)[nH]n2)c1 [Compound 120] | 2.64 nM | 2970 nM | 13.4 nM | – |
| COc1cc(O)c(C=O)c(OCC(=O)Nc2cc([C@H]3CC[C@@H](OC(=O)N(C)CC(F)F)C3)[nH]n2)c1 [Compound 121] | 1.99 nM | 2440 nM | 18.5 nM | – |
| CCN(C(=O)O[C@@H]1CC[C@H](c2cc(NC(=O)COc3cc(OC)cc(O)c3C=O)n[nH]2)C1)C(C)C [Compound 169] | 2.27 nM | 773 nM | 22.9 nM | – |
| CCCNC(=O)O[C@H]1C[C@@H](c2cc(NC(=O)COc3cc(OC)cc(O)c3C=O)n[nH]2)C1 [Compound 182, (1s,3s)-3-(3-(2-(2-formyl-3-hydroxy-5-methoxyphenoxy)acetamido)-1H-pyrazol-5-yl)cyclobutyl propylcarbamate] | 6.24 nM | > 10000 nM | 66.1 nM | – |
| COc1cc(O)c(C=O)c(OCC(=O)Nc2cc([C@H]3CC[C@@H](OC(=O)N[C@@H](C)CC#N)C3)[nH]n2)c1 [Compound 163] | 10.2 nM | 6300 nM | 27.7 nM | – |
| CCC[C@H](C)NC(=O)O[C@@H]1CC[C@H](c2cc(NC(=O)COc3cc(OC)cc(O)c3C=O)n[nH]2)C1 [Compound 168] | 2.45 nM | 3270 nM | 29.2 nM | – |
| COc1cc(O)c(C=O)c2c1CC(C(=O)Nc1cc([C@H]3C[C@@H](OC(=O)NC(C)C)C3)[nH]n1)C2 (single isomer, unassigned) [Compound 282, (1R,3s)-3-(3-((*)-4-formyl-5-hydroxy-7-methoxy-2,3-dihydro-1H-indene-2-carboxamido)-1H-pyrazol-5-yl)cyclobutyl isopropylcarbamate] | 5.3 nM | 3350 nM | 20.4 nM | – |
| O=Cc1c(O)cc(F)cc1OCC(=O)Nc1cc([C@H]2CC[C@@H](OC(=O)N3C4COCC3C4)C2)[nH]n1 [Compound 192] | 24 nM | 5910 nM | 88 nM | – |
| COc1cc(O)c(C=O)c(OCC(=O)Nc2cc([C@H]3CC[C@@H](OC(=O)N4[C@@H]5CC[C@H]4C[C@H](C#N)C5)C3)[nH]n2)c1 [Compound 154] | 7.73 nM | 2100 nM | 27.8 nM | – |
